Results reported in US9295730B2, “Conjugated molecules comprising a peptide derived from the CD4 receptor coupled to a polyanion for the treatment of AIDS” (Institut Pasteur, priority 2008, dated 2016).
Ends that are not written are not given here.

Key:
Type in all cases: cell-based
[1] = tested on: uninfected PHA-P-activated PBMC; assay: Cytotoxicity, MTT assay on day 7
Procedure: (§1) In parallel, cytotoxicity of the samples was evaluated in uninfected PHA-P-activated PBMC by a methyltetrazolium salt (MTT) assay on day 7. Experiments were performed in triplicate and 50, 70 and 90% effective doses and cytotoxic doses were calculated using SoftMaxPro software.

X4-tropic HIV-1-LAI = assay: Antiviral assay, PHA-P-activated PBMC infected with HIV-1-LAI, RT activity in supernatants; conditions: Table 7, VIH-1-LAI; for EC50: read-out: ED50 (the source's name)
R5-tropic HIV-1/Ba-L = assay: Antiviral assay, PHA-P-activated PBMC infected with HIV-1/Ba-L, RT activity in supernatants; conditions: Table 7, VIH-1/Ba-L
[2] = Cytotoxicity, MTT assay on day 7; conditions: human, uninfected PHA-P-activated PBMC
Procedure: as §1

Substance | Cytotoxicity CT50 [1] | Cytotoxicity CT70 [1] | Cytotoxicity CT90 [1] | ED70 (X4-tropic HIV-1-LAI) | ED90 (X4-tropic HIV-1-LAI) | EC50 (X4-tropic HIV-1-LAI) | ED70 (R5-tropic HIV-1/Ba-L) | ED90 (R5-tropic HIV-1/Ba-L) | EC50 (R5-tropic HIV-1/Ba-L; read-out: ED50 (the source's name)) | CC50 at 168 h [2]
5-aminopentyl[(3-O-benzyl-4-O-(4-methoxybenzyl)-2-O-sulfonato-α-L-idopyranosyluronate)-(1→4)-O-(3-O-benzyl-2-deoxy-2-sulfoamino-6-O-sulfonato-α-D-glucopyranoside)-(1→4)-O-(3-O-benzyl-2-O-sulfonato-α-L-idopyranosyluronate)]-(1→4)-O-3-O-benzyl-2-deoxy-2-sulfoamino-6-O-sulfonato-α-D-glucopyranoside heptasodium salt [HS4Bz] | >1000 nM | >1000 nM | >1000 nM | >1000 nM | >1000 nM | > 1000 nM | – | – | – | –
MEDLEETLFEEFENYSYDLDYYSLESC [GPR1] | – | >1000 nM | >1000 nM | >1000 nM | >1000 nM | > 1000 nM | >1000 nM | >1000 nM | > 1000 nM | > 1000 nM
